According to ChEMBL document CHEMBL3885881, “DrugMatrix”:

Species on record: Rattus norvegicus
Assay: DrugMatrix - Regimen: Daily Repeat
Format: toxicity, organism-based, Sprague-Dawley
Design: regimen Daily Repeat, gender Male, age 6-8 weeks
Conditions: in vivo, po, route oral GAVAGE, vehicle 100 % WATER; for ABSOLUTE BASOPHIL / ABSOLUTE EOSINOPHIL / ABSOLUTE LYMPHOCYTE / ABSOLUTE MONOCYTE / ABSOLUTE SEGMENTED NEUTROPHIL / BASOPHIL / EOSINOPHIL / ERYTHROCYTE COUNT / HEMATOCRIT / HEMOGLOBIN / LEUKOCYTE COUNT / LYMPHOCYTE / MEAN CORPUSCULAR HEMOGLOBIN / MEAN CORPUSCULAR HEMOGLOBIN CONCENTRATION / MEAN CORPUSCULAR VOLUME / MONOCYTE / NEUTROPHIL / NUCLEATED RED BLOOD CELLS / PLATELET COUNT: tissue Blood; for ALANINE AMINOTRANSFERASE / ALBUMIN / ALKALINE PHOSPHATASE / ASPARTATE AMINOTRANSFERASE / BLOOD UREA NITROGEN / CARBON DIOXIDE / CHLORIDE / CHOLESTEROL / CREATINE PHOSPHOKINASE / CREATININE / GLUCOSE / LACTATE DEHYDROGENASE / LIPASE / PHOSPHORUS / POTASSIUM / SODIUM / TOTAL BILIRUBIN / TOTAL PROTEIN / URIC ACID: tissue Plasma
[1] = 900 mg/kg, 120 h, dose level Low, time 5 day
[2] = 5000 mg/kg, 72 h, dose level High, time 3 day
[3] = 5000 mg/kg, 120 h, dose level High, time 5 day

`Clc1ccc(C(c2ccccc2Cl)C(Cl)Cl)cc1` (centres undefined) [MITOTANE] was tested, and the “ABSOLUTE BASOPHIL” value [1] was 0 CELLS/uL, the “ABSOLUTE EOSINOPHIL” value [1] was 0 CELLS/uL and the “ABSOLUTE LYMPHOCYTE” value [1] was 11920 CELLS/uL. For the same compound, the “ABSOLUTE MONOCYTE” value [1] was 138 CELLS/uL, the “ABSOLUTE SEGMENTED NEUTROPHIL” value [1] was 942 CELLS/uL and the BASOPHIL [1] was 0%. The EOSINOPHIL [1] was 0%, the “ERYTHROCYTE COUNT” value [1] was 5.65 x10E6/uL and the HEMATOCRIT [1] was 36%. For the same compound, the HEMOGLOBIN [1] was 14.27 G/DL, the “LEUKOCYTE COUNT” value [1] was 13 x10E3/uL and the LYMPHOCYTE [1] was 91.67%. The “MEAN CORPUSCULAR HEMOGLOBIN” value [1] was 25.3 pg, the “MEAN CORPUSCULAR HEMOGLOBIN CONCENTRATION” value [1] was 39.6 G/DL and the “MEAN CORPUSCULAR VOLUME” value [1] was 63.73 fL. The MONOCYTE [1] was 1%, the NEUTROPHIL [1] was 7.33% and the “NUCLEATED RED BLOOD CELLS” value [1] was 0 /100WBC. The “PLATELET COUNT” value [1] was 1407.33 x10E3/uL, the “ALANINE AMINOTRANSFERASE” value [1] was 52 u/L and the ALBUMIN [1] was 4.07 G/DL. For the same compound, the “ALKALINE PHOSPHATASE” value [1] was 421.33 u/L, the “ASPARTATE AMINOTRANSFERASE” value [1] was 89.67 u/L and the “BLOOD UREA NITROGEN” value [1] was 13.67 mg/dL. The “CARBON DIOXIDE” value [1] was 30.67 mmol/L, the CHLORIDE [1] was 100 MEQ/L and the CHOLESTEROL [1] was 71 mg/dL. For the same compound, the “CREATINE PHOSPHOKINASE” value [1] was 382 u/L, the CREATININE [1] was 0.2 mg/dL and the GLUCOSE [1] was 148.67 mg/dL. The “LACTATE DEHYDROGENASE” value [1] was 632.67 u/L, the LIPASE [1] was 11 u/L and the PHOSPHORUS [1] was 12.57 mg/dL. For the same compound, the POTASSIUM [1] was 6.42 MEQ/L, the SODIUM [1] was 142.8 MEQ/L and the “TOTAL BILIRUBIN” value [1] was 0.13 mg/dL. The “TOTAL PROTEIN” value [1] was 6.03 G/DL, the “URIC ACID” value [1] was 2.17 mg/dL and the “ABSOLUTE BASOPHIL” value [2] was 0 CELLS/uL. The “ABSOLUTE EOSINOPHIL” value [2] was 124.33 CELLS/uL, the “ABSOLUTE LYMPHOCYTE” value [2] was 15356 CELLS/uL and the “ABSOLUTE MONOCYTE” value [2] was 296.33 CELLS/uL. The “ABSOLUTE SEGMENTED NEUTROPHIL” value [2] was 556.67 CELLS/uL, the BASOPHIL [2] was 0% and the EOSINOPHIL [2] was 0.67%. For the same compound, the “ERYTHROCYTE COUNT” value [2] was 5.76 x10E6/uL, the HEMATOCRIT [2] was 36.73% and the HEMOGLOBIN [2] was 14.3 G/DL. The “LEUKOCYTE COUNT” value [2] was 16.33 x10E3/uL, the LYMPHOCYTE [2] was 94.67% and the “MEAN CORPUSCULAR HEMOGLOBIN” value [2] was 24.83 pg. The “MEAN CORPUSCULAR HEMOGLOBIN CONCENTRATION” value [2] was 38.93 G/DL, the “MEAN CORPUSCULAR VOLUME” value [2] was 63.8 fL and the MONOCYTE [2] was 1.67%. For the same compound, the NEUTROPHIL [2] was 3%, the “NUCLEATED RED BLOOD CELLS” value [2] was 0 /100WBC and the “PLATELET COUNT” value [2] was 1407.33 x10E3/uL. For the same compound, the “ALANINE AMINOTRANSFERASE” value [2] was 75.67 u/L, the ALBUMIN [2] was 3.93 G/DL and the “ALKALINE PHOSPHATASE” value [2] was 512.67 u/L. The “ASPARTATE AMINOTRANSFERASE” value [2] was 87 u/L, the “BLOOD UREA NITROGEN” value [2] was 12.33 mg/dL and the “CARBON DIOXIDE” value [2] was 32.67 mmol/L. For the same compound, the CHLORIDE [2] was 101 MEQ/L, the CHOLESTEROL [2] was 72.33 mg/dL and the “CREATINE PHOSPHOKINASE” value [2] was 440.67 u/L. For the same compound, the CREATININE [2] was 0.19 mg/dL, the GLUCOSE [2] was 123.33 mg/dL and the “LACTATE DEHYDROGENASE” value [2] was 189.33 u/L. The LIPASE [2] was 10.33 u/L, the PHOSPHORUS [2] was 11.37 mg/dL and the POTASSIUM [2] was 6.63 MEQ/L. For the same compound, the SODIUM [2] was 144.03 MEQ/L, the “TOTAL BILIRUBIN” value [2] was 0.1 mg/dL and the “TOTAL PROTEIN” value [2] was 6.13 G/DL. The “URIC ACID” value [2] was 1.53 mg/dL, the “ABSOLUTE BASOPHIL” value [3] was 0 CELLS/uL and the “ABSOLUTE EOSINOPHIL” value [3] was 32.67 CELLS/uL. The “ABSOLUTE LYMPHOCYTE” value [3] was 11464 CELLS/uL, the “ABSOLUTE MONOCYTE” value [3] was 86.67 CELLS/uL and the “ABSOLUTE SEGMENTED NEUTROPHIL” value [3] was 983.33 CELLS/uL. For the same compound, the BASOPHIL [3] was 0%, the EOSINOPHIL [3] was 0.33% and the “ERYTHROCYTE COUNT” value [3] was 5.42 x10E6/uL. The HEMATOCRIT [3] was 34.3%, the HEMOGLOBIN [3] was 13.47 G/DL and the “LEUKOCYTE COUNT” value [3] was 12.57 x10E3/uL. The LYMPHOCYTE [3] was 91.33%, the “MEAN CORPUSCULAR HEMOGLOBIN” value [3] was 24.83 pg and the “MEAN CORPUSCULAR HEMOGLOBIN CONCENTRATION” value [3] was 39.3 G/DL. The “MEAN CORPUSCULAR VOLUME” value [3] was 63.2 fL, the MONOCYTE [3] was 0.67% and the NEUTROPHIL [3] was 7.67%. For the same compound, the “NUCLEATED RED BLOOD CELLS” value [3] was 0 /100WBC, the “PLATELET COUNT” value [3] was 1284 x10E3/uL and the “ALANINE AMINOTRANSFERASE” value [3] was 63.67 u/L. For the same compound, the ALBUMIN [3] was 4.07 G/DL, the “ALKALINE PHOSPHATASE” value [3] was 426.67 u/L and the “ASPARTATE AMINOTRANSFERASE” value [3] was 73 u/L. For the same compound, the “BLOOD UREA NITROGEN” value [3] was 15 mg/dL, the “CARBON DIOXIDE” value [3] was 34.67 mmol/L and the CHLORIDE [3] was 97.33 MEQ/L. The CHOLESTEROL [3] was 99.67 mg/dL, the “CREATINE PHOSPHOKINASE” value [3] was 400.67 u/L and the CREATININE [3] was 0.19 mg/dL. For the same compound, the GLUCOSE [3] was 133.33 mg/dL, the “LACTATE DEHYDROGENASE” value [3] was 123.33 u/L and the LIPASE [3] was 11.33 u/L. For the same compound, the PHOSPHORUS [3] was 11.97 mg/dL, the POTASSIUM [3] was 6.85 MEQ/L and the SODIUM [3] was 141.7 MEQ/L. For the same compound, the “TOTAL BILIRUBIN” value [3] was 0.2 mg/dL, the “TOTAL PROTEIN” value [3] was 6.37 G/DL and the “URIC ACID” value [3] was 1.57 mg/dL.
